What all share (test): NCI tumour cell line growth inhibition, 48 h
Experiment [1] deals with HCC-2998 colon.
The test system of experiment [2] is 786-0 renal.
Experiment [3] deals with T-47D breast.
Experiment [4] relates to NCI-H23 lung.
The subject of experiment [5] is PC-3 prostate.
In experiment [6] the test system is UACC-62 melanoma.
Experiment [7] relates to HCT-116 colon.
Experiment [8] has as its system SN12C renal.
Experiment [9] concerns HS 578T breast.
Experiment [10] relates to HL-60(TB) leukemia.

Several values for one entry are separate records, joined by “and”; a condition that tells them apart may be missing. Equal entries are not always repeated.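 Results reflect a 48-hour exposure of cells in 96-well plates to compound at five concentrations. GI50 is the concentration that inhibits growth by half. The concentration for full growth arrest is given as TGI.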

`COc1ccc(-c2c(/C=N/OCC(=O)O)c3sc4ccccc4n3c2/C=N/OCC(=O)O)cc1`: the TGI in [1], in [2], in experiment [3], in experiment [4], in experiment [5] and in experiment [6] was above 50 µM in each case. The TGI in experiment [7], in experiment [8] and in [9] was above 50 µM throughout.
Consider `CCOC(=O)C1=C(N2CCCC2)C(=O)C(C(=O)OCC)C1` (stereo unspecified), for which the TGI in experiment [1], in [2], in experiment [3], in experiment [4], in [5] and in experiment [7] was above 100 µM each time. This compound also displayed a TGI in [8] above 100 µM.
In the case of `CSCSCC(CO)NC(=O)/C=C\c1c(C)[nH]c(=O)[nH]c1=O` (stereo unspecified), the TGI in [10] worked out at 46.6 µM; in experiment [1], 52.9 µM; in experiment [4], 120 µM; in [6], 197 µM; in experiment [7] it was 96.4 µM; in [8] it was 102 µM.
For `COc1ccc(-c2nc(-c3cnccn3)n(C/C=C/c3ccccc3)n2)cc1`, the TGI in [10] is above 100 µM; in experiment [1], above 100 µM; in [2], 46.5 µM; in experiment [3], above 100 µM; in experiment [4], above 100 µM; in [5], above 100 µM. Also, the TGI in experiment [6], in [7] and in experiment [8] was above 100 µM in each case.
Regarding `COc1ccc(NCn2nc(CCCCCCCCc3nn(CNc4ccc(OC)cc4)c(=S)o3)oc2=S)cc1`, the TGI in experiment [1], in experiment [2], in experiment [4], in experiment [5], in experiment [6] and in [7] was above 100 µM each time. For the same compound, in experiment [8], the TGI is above 100 µM.
In the case of `O=C(O)C12C=CC(C1)c1ccccc12` (stereo unspecified), the TGI in experiment [10], in experiment [1], in experiment [2], in experiment [4], in experiment [6] and in [7] was above 100 µM throughout. In experiment [8], this compound gave a TGI above 100 µM.
Consider `COc1cccc(C2C(C#N)=C(N)Oc3cc(OCCCCCC[P+](c4ccccc4)(c4ccccc4)c4ccccc4)ccc32)c1` (stereo unspecified), for which the GI50 in experiment [10] is 0.263 µM; in experiment [1], 0.493 µM; in experiment [3], 0.354 µM; in [4] it was 0.624 µM; in [9] it was 0.608 µM. Also, the TGI in [10] came out at 0.738 µM; in experiment [1], 1.68 µM; in experiment [3] it was 1.95 µM; in experiment [4], 2.83 µM; in [9], 2.78 µM.
As to `N#Cc1nc(CN2C(=O)c3ccccc3C2=O)oc1N`, the TGI in experiment [1], in experiment [2], in experiment [3], in experiment [5], in experiment [7] and in [8] was above 100 µM in each case. This compound also returned a TGI in experiment [9] above 100 µM.
`CC(C)(C)N=C1C(=O)C2(C)CCC1C2(C)C` (stereo unspecified): the TGI in [1] was above 100 µM; in experiment [2], above 100 µM; in [3], above 100 µM; in experiment [4], above 100 µM; in [5], above 100 µM; in experiment [6], 34.8 µM. Also, the TGI in experiment [7] is above 100 µM.
Take `Oc1c(NCn2nc(CCCCCCCCc3nn(CNc4ccc5ccccc5c4O)c(=S)o3)oc2=S)ccc2ccccc12`: the TGI in experiment [1] is above 100 µM; in experiment [2], above 100 µM; in experiment [4], above 100 µM; in experiment [5] it was above 100 µM; in experiment [6], above 100 µM; in experiment [7], 50.4 µM. The TGI in experiment [8] is above 100 µM.
Regarding `CCC1OC2(C)CC(C#N)(C#N)C1(C#N)C(=N)O2` (stereo unspecified), the TGI in experiment [10], in experiment [2], in experiment [3], in experiment [4], in [5] and in experiment [6] was above 100 µM each time. In addition, the TGI in experiment [7], in [8] and in experiment [9] was above 100 µM in each case.
For `CC1(C)CC(=O)C2=C(C1)NC(=S)C(C#N)C2c1ccccc1` (stereo unspecified), the TGI in [10], in experiment [1], in [2], in [4], in experiment [5] and in experiment [6] was above 100 µM in each case. Also, the TGI in [7], in [8] and in experiment [9] was above 100 µM throughout.
For the compound `Cc1oc(N)c(S(=O)(=O)/C(C#N)=C/c2ccccc2[N+](=O)[O-])c1C`, the TGI is above 100 µM in [1]; 92.6 µM in [2]; 66.8 µM in experiment [3]; 79.4 µM in experiment [4]; 99 µM in [5]; 46.9 µM in experiment [6]. Also, the TGI in [7] was 78.5 µM; in experiment [8] it was 47.8 µM.
Take `CC1(C)Cc2ccccc2C(C)(Cl)C(=O)N1` (stereo unspecified): the TGI in experiment [10], in [1], in experiment [2], in experiment [3], in [4] and in experiment [5] was above 10 µM each time. In addition, the TGI in experiment [6], in [7] and in [8] was above 10 µM throughout.
Regarding `CCCCn1c(-c2ccccc2)cs/c1=N\NC(=O)Cn1c(C)nc2ccccc21`, the TGI in [10] is 56.2 µM; in experiment [1], above 100 µM; in [2], above 100 µM; in experiment [4], above 100 µM; in [6], above 100 µM; in [7] it was above 100 µM. The same compound displayed a TGI in experiment [8] above 100 µM.
As to `Cc1c2cc[n+](C)cc2c(C)c2c1[nH]c1ccc(OCC(F)(F)F)cc12`, the GI50 in experiment [10] is 5.13 µM and 16.4 µM; in experiment [8], 0.123 µM. For the same compound, the TGI is above 70.4 µM in experiment [10]; 34.5 µM and > 100 µM in [1]; above 100 µM in experiment [2]; 5.8 µM and 9.49 µM in [4]; above 100 µM in experiment [6]; above 100 µM in experiment [7].
In the case of `CC(=O)N1CCOC12N=NC(C)(C)O2` (stereo unspecified), the TGI in [1], in experiment [2], in experiment [3], in [4], in experiment [5] and in experiment [6] was above 100 µM each time. Moreover, the TGI in experiment [7], in experiment [8] and in [9] was above 100 µM in each case.
With `C/C(N=NS(=O)(=O)c1c(C)cc(C)cc1C)=C1\C=CC=CN1O`, the TGI in [10], in experiment [1], in experiment [2], in [4], in experiment [6] and in experiment [7] was above 100 µM each time. The compound also showed a TGI in experiment [8] above 100 µM.
Turning to `CC12CC(c3ccccc3O1)C(C(=O)Nc1nccs1)C(=O)N2` (stereo unspecified), the TGI in [10], in experiment [1], in experiment [2], in experiment [4], in [5] and in [6] was above 100 µM each time. Besides, the TGI in experiment [7] and in experiment [9] was above 100 µM throughout.
On to `COc1ccc(/C=C/C(=O)c2cc(CN(C)C)c(O)c(CN(C)C)c2)cc1`, for which the TGI in [10] was 54.5 µM; in experiment [2], above 100 µM; in experiment [3] it was above 100 µM; in experiment [4], above 100 µM; in [5], 85.8 µM; in [7], above 100 µM. For the same compound, the TGI in experiment [8] and in experiment [9] was above 100 µM in each case.
For the compound `C=C1C(=O)OC2C[C@@]3(C)CCCC(=C)C3CC12` (stereo partly specified), the TGI worked out at 26.7 µM in [1]; 26.9 µM in experiment [4]; 18.1 µM in [6]; 15.2 µM in [7]; 16.7 µM in experiment [8].
Regarding `O=c1[nH]c(=S)[nH]c2c1CCCN2`, the TGI in experiment [10], in [2], in [4], in experiment [6], in experiment [7] and in experiment [8] was above 100 µM throughout.
On to `NCCCNCCSP(=O)(O)O`, for which the TGI in experiment [10] is above 721 µM; in experiment [1], above 750 µM; in [4], above 750 µM; in experiment [6], above 750 µM; in experiment [7], above 750 µM; in experiment [8], above 750 µM.
With `O=Cn1c2ccccc2c2ccccc21`, the TGI in [10], in [1], in experiment [2], in experiment [4], in experiment [6] and in experiment [7] was above 100 µM throughout. For the same compound, the TGI in experiment [8] was above 100 µM.
Regarding `COc1ccc(-c2csc3c2[N+]2(C)C=CC=C2C3N2CCCC2)cc1` (stereo unspecified), the TGI was above 100 µM in experiment [10]; above 100 µM in experiment [2]; 76.1 µM in experiment [3]; 44.7 µM in [4]; above 100 µM in experiment [5]; 38.2 µM in experiment [6]. In addition, the TGI was above 100 µM in experiment [7] and 98.6 µM in experiment [9].
Turning to `COc1cc(/C=C2\N=C(c3ccccc3)N(c3cc4cc(Sc5ccccc5)ccc4[nH]3)C2=O)ccc1O`, the TGI in experiment [10] is 4.19 µM; in experiment [1], above 50 µM; in [2], above 50 µM; in [3], above 50 µM; in [4] it was above 50 µM; in experiment [6], above 50 µM. Also, the TGI in experiment [7] and in experiment [8] was above 50 µM in each case.
`c1ccc(C2N=C(c3ccccn3)C(c3ccccn3)=NC2c2ccccc2)cc1` (stereo unspecified): the TGI in [10], in experiment [1], in experiment [2], in experiment [4], in experiment [6] and in [7] was above 100 µM throughout.
Regarding `CCOC(=O)/C=C(/C(=O)OCC)n1cc(C)c(=O)n(Cc2cn(CCCCOC(C)=O)nn2)c1=O`, the TGI was 36.6 µM in [1]; above 100 µM in experiment [2]; above 100 µM in [3]; 31.9 µM in experiment [4]; 40.3 µM in [5]; 30.5 µM in experiment [6]. Further, the TGI was found to be 65 µM in experiment [7], 91.7 µM in [8] and 59 µM in [9].
Regarding `C=C1c2nc3ccccc3n2C=C(c2ccccc2)N1c1ccc(C)cc1`, the TGI in [1] is 36.7 µM; in experiment [2], above 100 µM; in experiment [4], above 100 µM; in experiment [5] it was above 100 µM; in experiment [6], above 100 µM; in [7], above 100 µM. Further, in [8], the TGI is above 100 µM.
Consider `Cc1ccc(N=Nc2c(O)ccc3ccccc23)c(C)c1`, for which the TGI in experiment [2], in [3], in experiment [4], in experiment [5], in experiment [6] and in experiment [7] was above 100 µM in each case. Also, the TGI in [8] and in experiment [9] was above 100 µM each time.
For `CN(C)Cc1cc(/C=C/C(=O)c2ccc(Br)cc2)cc(CN(C)C)c1O`, the TGI in experiment [10] was 50.6 µM; in experiment [1] it was 27.8 µM; in experiment [2], 29.9 µM; in [3], 35.4 µM; in experiment [5], above 100 µM; in [6], 39.1 µM. In addition, the TGI in experiment [7] was found to be 29 µM; in [8], 32.3 µM.
As to `COC(=O)c1c(CC(=O)OC(C)C)cc2n(c1=O)Cc1c-2nc2ccccc2c1OC`, the TGI in [10], in [1], in experiment [2], in experiment [4], in experiment [6] and in experiment [7] was above 100 µM throughout. Further, the TGI in experiment [8] is above 100 µM.
For `Cc1cc2ccccc2oc(=O)/c1=N\Nc1ccccc1`, the TGI in experiment [10] was above 100 µM; in experiment [1], above 100 µM; in experiment [2], 97 µM; in [4] it was above 100 µM; in experiment [5], above 100 µM; in [6] it was above 100 µM. Besides, the TGI in experiment [7] and in experiment [8] was above 100 µM each time.
